US9770423B2, “Modulation sAPP, sAAPα and BDNF levels in individuals diagnosed with FXS and ASD” (Indiana University Research and Technology Corp., priority 2012, dated 2017)
Values joined by “and” are separate entries in the source; they are usually repeats but may differ in a detail not shown here. Equal values may be shown once.

Assays:
[1] = tested on: glutamate or GABA receptors subtypes; conditions: xenopus oocyte model, clinically relevant concentrations; cited from earlier work
[2] = safety measures and adverse effects in the FXS open-label trial; assay type: in vivo, human
Source text: Safety assessment and monitoring began at screen when all subjects underwent a medical history, physical examination, and full psychiatric interview. A physical examination was also completed at end point. Vital signs, including height and weight, were obtained at each study visit. At screen, genetic testing for FXS was obtained if record of molecular testing utilizing Southern Blot and PCR was not available. At screen, week 6, and endpoint, laboratory tests of blood and urine, including CBC with differential and platelets, electrolyte panel, liver associated enzymes, lipid panel, and urine pregnancy test (in females) were obtained. An electrocardiogram was also obtained at screen and endpoint.
The pilot study ran for 10 weeks. Safety lab screens were carried out at weeks 6 and 10. Physiologic parameters measured during the safety screens were as follows: vital signs, LFTs, electrolyte panels, CBC with diff/plts, lipid panel, glucose, urinalysis and ECG.
In-person clinical visits were scheduled for every two weeks. Telephonic evaluations were carried out at weeks 1, 3, and 5. Each subject was evaluated for side effects at every interaction with the practitioner.

[3] = tested on: youth with Fragile X Syndrome (FXS); assay: 10-week open-label trial of acamprosate in youth with FXS: behavioral outcome measures; assay type: in vivo, human; conditions: for Aberrant Behavior Checklist-Social Avoidance (ABC-SA), end point mean ± SD: baseline 3.3 ± 2.6, p 0.01; for Clinical Global Impressions-Severity (CGI-S), end point mean ± SD: baseline 4.25 ± 0.45; for Clinical Global Impressions-Severity (CGI-S), end point mean ± SD / ADHD Rating Scale 4th Edition (ADHD-RS), end point mean ± SD: p <0.0001; for Aberrant Behavior Checklist-Social Withdrawal (ABC-SW), end point mean ± SD: baseline 8.8 ± 5.8, p 0.04 (Table 2), baseline 7.33 ± 5.2, p 0.014 (Table 5); for Aberrant Behavior Checklist-Hyperactivity (ABC-H), end point mean ± SD: baseline 16.8 ± 9.1, p 0.009; for ADHD Rating Scale 4th Edition (ADHD-RS), end point mean ± SD: baseline 23.6 ± 10.6; for Vineland Adaptive Behavior Scale (VABS) Communication Domain, end point mean ± SD: baseline 63.4 ± 10.1, p 0.03; for VABS Expressive Communication Subdomain, end point mean ± SD: baseline 69.8 ± 23.0, p 0.003; for Social Responsiveness Scale total score (SRS), end point mean ± SD: baseline 91.3 ± 27.4, p 0.005
Source text: The Institutional Review Board (IRB) at an academic medical center approved this study. Thirteen outpatient males and females aged 5 to 17 years with body weight 15 kg were recruited for this study. Written informed consent was obtained from each participant's legal guardian (parent for all children in this report), and subjects provided assent when able. Diagnosis of FXS was confirmed by Southern Blot and PCR results consistent with a greater than 200 CGG repeat expansion in the FMR1 gene with at least partial gene methylation. Subjects had to be free of other significant medical conditions. The concomitant use of psychotropic drugs that are not thought to impact glutamate neurotransmission were allowed so long as the patients experienced stable dosing at least 4 weeks prior to baseline. Subjects were required to have a mental age of greater than 18 months as determined by the Stanford-Binet 5th Edition. Additional inclusion criteria included a CGI-S(Guy 1976) score of at least 4 (“Moderately Ill”). Subjects with a Diagnostic and Statistical Manual of Mental Disorders, 4th Edition, Text Revision (DSM-IV-TR) diagnosis of a psychotic disorder, bipolar disorder, or substance use disorder were excluded from the study. Additionally, subjects with a positive urine pregnancy test, creatinine clearance of <30, active seizure disorder, or other significant medical condition were excluded.
A 10-week, prospective, open-label study design was chosen to gather pilot data for potential future larger-scale, double-blind, placebo-controlled studies in this population.
All subjects underwent a screening and baseline visit followed by follow-up visits every 2 weeks during the 10-week open-label trial period. At the end of weeks 1, 3, and 5 the investigators called the parent to assess drug tolerability and to make dose adjustments as indicated. All subjects received 333 mg/day of acamprosate during the first week of the study. The investigators then increased the dosage to a maximum of 1,998 mg/day (weight>50 kg) or 1,332 mg/day (weight<50 kg) over the first six weeks of the study, if optimal clinical response (CGI-I equal to 1 “very much improved”) had not occurred and intolerable adverse effects had not emerged. The dose maintenance phase lasted 4 weeks at the optimal dosage.
The CGI-S assessment was administered at screen and at baseline as part of the eligibility criteria described above. In this study, the rater scored the CGI-S in regard to severity of symptoms commonly noted in FXS including, but not limited to, inattention/hyperactivity, social impairment, communication impairment, repetitive behavior, irritability, and anxiety. The CGI-S is rated on a scale from 1 to 7 (1=normal, not ill at all; 2=borderline ill; 3=mildly ill; 4=moderately ill; 5=markedly ill; 6=severely ill; 7=among the most extremely ill patients with FXS). The Autism Diagnostic Observation Schedule (ADOS) (Lord, Rutter et al. 1989) was administered at baseline to characterize potential concomitant ASD diagnosis.
The primary outcome measure was the CGI-I. The CGI-I is a scale designed to assess global change from baseline. […] Treatment response was defined by a CGI-I score of 1 “very much improved” or 2 “much improved.” In this study, the CGI-I was utilized as a general global primary outcome measure given the uncertainty as to what specific symptoms/behaviors associated with FXS may be expected to improve or worsen with use of acamprosate. The CGI-I was administered at all visits after baseline.
Secondary outcome measures included all subscales of the ABC (Irritability, Social Withdrawal, Stereotypy, Hyperactivity, and Inappropriate Speech). The ABC is an informant-rated (primary caregiver) measure with confirmed reliability and validity with regard to factor structure, distribution of scores, and sensitivity to change in persons with developmental disability (Aman, Singh et al. 1985). […]

[4] = tested on: drinking-in-the-dark mouse model; conditions: cited from earlier work
[5] = caregiver reported, 12 youth with FXS
[6] = FXS, 10 weeks, listed as Acamprosate
[7] = baseline to endpoint, FXS, p=0.01
[8] = mean change from baseline to endpoint divided by SD at baseline, FXS

CC(=O)NCCCS(=O)(=O)O.[Ca] [acamprosate, Calcium Acetylhomotaurine]
direct binding to glutamate or GABA receptors subtypes [1]: no direct binding
Increased body rocking, mild (number of patients) ([2]; 12 youth with FXS): 1
ECG including QTc interval ([2]; FXS trial): no change in the QTc interval
laboratory measures: lipids, electrolytes, liver function tests, blood counts ([2]; FXS trial): no clinically significant or mean changes
weight, pulse, or blood pressure ([2]; FXS trial): No clinically significant changes
overall tolerability ([2]; FXS trial, 12 subjects): well tolerated overall, with no severe or serious adverse effects
Constipation, mild (n subjects) [2, 5]: 1
Diarrhea, mild (n subjects) [2, 5]: 1
Increased Anxiety, mild (n subjects) [2, 5]: 1
Increased Repetitive Behavior, mild (n subjects) [2, 5]: 2
Insomnia, mild (n subjects) [2, 5]: 1
Irritability, mild (n subjects) [2, 5]: 4
Nightmares, mild (n subjects) [2, 5]: 1
Rhinitis, mild (n subjects) [2, 5]: 1
Urinary Urgency, mild (n subjects) [2, 5]: 1
subjects who experienced a mild adverse event ([2]; nine of 12 subjects, FXS trial): 75%
treatment responders (CGI-I score of 1 or 2) ([3]; 12 youth with FXS, 10 weeks, mean final dose 1054 mg/day): 75%
mean CGI-I at endpoint ([3]; 12 youth with FXS, scale 1-7): 1.9
mean CGI-I values for the responders at week 10 ([3]; FXS trial, week 10): 1.92
PPVT scores, change with treatment ([3]; FXS, 10 weeks): did not significantly change
SRS Social Awareness and Autistic Mannerisms subscales, change with treatment ([3]; FXS, 10 weeks): Improvement was not noted
other VABS domains, change with treatment ([3]; FXS, 10 weeks): No other changes with treatment were noted
other subscales of the ABC and the CY-BOCS-PDD, change during treatment ([3]; FXS, 10 weeks): did not change significantly
Aberrant Behavior Checklist-Social Avoidance (ABC-SA), end point mean ± SD ([3]; FXS, 10 weeks): 1.6
Aberrant Behavior Checklist-Social Avoidance (ABC-SA), end point mean ± SD [3, 6]: 1.6 ± 2.7
Clinical Global Impressions-Severity (CGI-S), end point mean ± SD ([3]; FXS, 10 weeks): 3.33
Clinical Global Impressions-Severity (CGI-S), end point mean ± SD [3, 6]: 3.33 ± 0.5 and 3.33 ± 0.49
Aberrant Behavior Checklist-Inappropriate Speech (ABC-IS), end point mean ± SD ([3]; FXS, 10 weeks, baseline 5.2 ± 3.5, p 0.61): 4.8 ± 3.4
Aberrant Behavior Checklist-Stereotypy (ABC-S), end point mean ± SD ([3]; FXS, 10 weeks, baseline 6.8 ± 6.8, p 0.09): 6 ± 6.3
Aberrant Behavior Checklist-Social Withdrawal (ABC-SW), end point mean ± SD ([3]; FXS, 10 weeks): 4.1
Aberrant Behavior Checklist-Social Withdrawal (ABC-SW), end point mean ± SD [3, 6]: 4.1 ± 6.5
Aberrant Behavior Checklist-Irritability (ABC-I), end point mean ± SD ([3]; FXS, 10 weeks, baseline 9.9 ± 7.8, p 0.11): 7.0 ± 8.9
Children's Yale-Brown Obsessive Compulsive Scale Modified for PDD (CY-BOCS-PDD), end point mean ± SD ([3]; FXS, 10 weeks, baseline 11.1 ± 2.6, p 0.15): 9.8 ± 4.1
Aberrant Behavior Checklist-Hyperactivity (ABC-H), end point mean ± SD ([3]; FXS, 10 weeks): 11.0
Aberrant Behavior Checklist-Hyperactivity (ABC-H), end point mean ± SD [3, 6]: 11.0 ± 8.6
ADHD Rating Scale 4th Edition (ADHD-RS), end point mean ± SD ([3]; FXS, 10 weeks): 16.7
ADHD Rating Scale 4th Edition (ADHD-RS), end point mean ± SD [3, 6]: 16.7 ± 8
Vineland Adaptive Behavior Scale (VABS) Communication Domain, end point mean ± SD ([3]; FXS, 10 weeks): 66.6
Vineland Adaptive Behavior Scale (VABS) Communication Domain, end point mean ± SD [3, 6]: 66.6 ± 11.2
VABS Expressive Communication Subdomain, end point mean ± SD ([3]; FXS, 10 weeks): 78.9
VABS Expressive Communication Subdomain, end point mean ± SD [3, 6]: 78.9 ± 21.2
Peabody Picture Vocabulary Test (PPVT), end point mean ± SD ([3]; FXS, 10 weeks, baseline 85.2 ± 32.0, p 0.53): 83.3 ± 32
Social Responsiveness Scale total score (SRS), end point mean ± SD ([3]; FXS, 10 weeks): 76.4
Social Responsiveness Scale total score (SRS), end point mean ± SD [3, 6]: 76.4 ± 26.8 and 76.42 ± 26.8
decline of mean ABC-H score ([3]; baseline to endpoint, FXS): 35%
decline of mean ABC-SA score ([3]; baseline to endpoint, FXS): 51%
decline of mean ABC-SW score ([3]; baseline to endpoint, FXS): 53%
decline of mean ADHD-RS score ([3]; baseline to endpoint, FXS): 29%
decline of mean total SRS raw score ([3]; baseline to endpoint, FXS): 16%
improvement of mean VABS Communication Domain standard score ([3]; baseline to endpoint, FXS): 5%
improvement of mean VABS Expressive Communication score ([3]; baseline to endpoint, FXS): 13%
decline of SRS Social Motivation subscale ([3]; baseline to endpoint, FXS, p=0.003): 28%
decline of SRS Social Cognition subscale [3, 7]: 19%
decline of SRS Social Communication subscale [3, 7]: 14%
Effect Size, ABC-H [3, 8]: 0.64
Effect Size, ABC-SA [3, 8]: 0.64
Effect Size, ABC-SW [3, 8]: 0.81
Effect Size, ADHD-RS [3, 8]: 0.65
Effect Size, CGI-S [3, 8]: 2.0
Effect Size, SRS total score [3, 8]: 0.54
Effect Size, VABS Communication Domain [3, 8]: 0.3
Effect Size, VABS Expressive Communication Subdomain [3, 8]: 0.4
Effect Size, VABS Communication Domain ([3]; mean change from baseline to endpoint divided by SD at baseline, FXS, listed as Acamprosate): 0.32
treatment responders, number of subjects ([3]; of 12 youth with FXS): 9
alcohol intake [4]: reduced alcohol intake
